# Test results published in ChEMBL document CHEMBL3085659, “Synthesis, antiproliferative and apoptosis-inducing activity of thiazolo[5,4-d]pyrimidines” (Eur J Med Chem, 2013).
# Test system: T47D
# Experiment: Antiproliferative activity against human T47D cells assessed as growth inhibition at 10 uM after 48 hrs by SRB assay
# Type: functional
# Details: read-out: GI
row,SMILES,inhibition of growth at 10 µM [%]
1,Clc1ccc(Nc2nc3c(Cl)ncnc3s2)cc1,9
2,c1ccc(Nc2nc3c(N4CCNCC4)ncnc3s2)cc1,21
3,c1ccc(Nc2nc3c(N4CCC(N5CCCCC5)CC4)ncnc3s2)cc1,21
4,Clc1ncnc2sc(Nc3ccccc3)nc12,22
5,CN1CCN(c2ncnc3sc(Nc4ccccc4)nc23)CC1,13
6,CCN1CCN(c2ncnc3sc(Nc4ccccc4)nc23)CC1,29
7,CCN(CC)c1ncnc2sc(Nc3ccccc3)nc12,27
8,CN(C)c1ncnc2sc(Nc3ccc(Cl)cc3)nc12,21
9,Clc1ccc(Nc2nc3c(N4CCOCC4)ncnc3s2)cc1,40
10,O=C(Nc1nc2c(Cl)ncnc2s1)c1ccccc1,32
11,c1ccc(Nc2nc3c(N4CCCCC4)ncnc3s2)cc1,31
12,COc1ccc(Nc2nc3c(Cl)ncnc3s2)cc1,19
13,CN1CCN(c2ncnc3sc(Nc4ccc(Cl)cc4)nc23)CC1,21
14,Clc1ccc(Nc2nc3c(N4CCCC4)ncnc3s2)cc1,38
15,CN(C)c1ncnc2sc(Nc3ccccc3)nc12,31
16,Clc1ccc(Nc2nc3c(N4CCCCC4)ncnc3s2)cc1,8

# Test system: HL-60
# Experiment: Antiproliferative activity against human HL60 cells assessed as growth inhibition at 10 uM after 48 hrs by SRB assay
# Type: functional
# Details: HL-60, 48 h, read-out: GI
row,SMILES,inhibition of growth at 10 µM [%]
1,Clc1ccc(Nc2nc3c(Cl)ncnc3s2)cc1,18
2,c1ccc(Nc2nc3c(N4CCNCC4)ncnc3s2)cc1,39
3,c1ccc(Nc2nc3c(N4CCC(N5CCCCC5)CC4)ncnc3s2)cc1,39
4,Clc1ncnc2sc(Nc3ccccc3)nc12,21
5,CN1CCN(c2ncnc3sc(Nc4ccccc4)nc23)CC1,12
6,CCN1CCN(c2ncnc3sc(Nc4ccccc4)nc23)CC1,24
7,CCN(CC)c1ncnc2sc(Nc3ccccc3)nc12,31
8,CN(C)c1ncnc2sc(Nc3ccc(Cl)cc3)nc12,39
9,Clc1ccc(Nc2nc3c(N4CCOCC4)ncnc3s2)cc1,33
10,O=C(Nc1nc2c(Cl)ncnc2s1)c1ccccc1,21
11,c1ccc(Nc2nc3c(N4CCCCC4)ncnc3s2)cc1,22
12,COc1ccc(Nc2nc3c(Cl)ncnc3s2)cc1,31
13,CN1CCN(c2ncnc3sc(Nc4ccc(Cl)cc4)nc23)CC1,20
14,Clc1ccc(Nc2nc3c(N4CCCC4)ncnc3s2)cc1,41
15,CN(C)c1ncnc2sc(Nc3ccccc3)nc12,28
16,Clc1ccc(Nc2nc3c(N4CCCCC4)ncnc3s2)cc1,21

# Test system: PC-3
# Experiment: Antiproliferative activity against human PC3 cells assessed as growth inhibition at 10 uM after 48 hrs by SRB assay
# Type: functional
# Details: PC-3, 48 h, read-out: GI
row,SMILES,inhibition of growth at 10 µM [%]
1,Clc1ccc(Nc2nc3c(Cl)ncnc3s2)cc1,18
2,c1ccc(Nc2nc3c(N4CCNCC4)ncnc3s2)cc1,35
3,c1ccc(Nc2nc3c(N4CCC(N5CCCCC5)CC4)ncnc3s2)cc1,34
4,Clc1ncnc2sc(Nc3ccccc3)nc12,20
5,CN1CCN(c2ncnc3sc(Nc4ccccc4)nc23)CC1,29
6,CCN1CCN(c2ncnc3sc(Nc4ccccc4)nc23)CC1,19
7,CCN(CC)c1ncnc2sc(Nc3ccccc3)nc12,19
8,CN(C)c1ncnc2sc(Nc3ccc(Cl)cc3)nc12,28
9,Clc1ccc(Nc2nc3c(N4CCOCC4)ncnc3s2)cc1,39
10,O=C(Nc1nc2c(Cl)ncnc2s1)c1ccccc1,21
11,c1ccc(Nc2nc3c(N4CCCCC4)ncnc3s2)cc1,2
12,COc1ccc(Nc2nc3c(Cl)ncnc3s2)cc1,26
13,CN1CCN(c2ncnc3sc(Nc4ccc(Cl)cc4)nc23)CC1,18
14,Clc1ccc(Nc2nc3c(N4CCCC4)ncnc3s2)cc1,31
15,CN(C)c1ncnc2sc(Nc3ccccc3)nc12,36
16,Clc1ccc(Nc2nc3c(N4CCCCC4)ncnc3s2)cc1,2

# Test system: not listed separately
# Experiment: Antiproliferative activity against human MIAPaCa2 cells assessed as growth inhibition at 10 uM after 48 hrs by SRB assay
# Type: functional
# Details: MIA PaCa-2, 48 h, read-out: GI
row,SMILES,inhibition of growth at 10 µM [%]
1,Clc1ccc(Nc2nc3c(Cl)ncnc3s2)cc1,10
2,c1ccc(Nc2nc3c(N4CCNCC4)ncnc3s2)cc1,30
3,c1ccc(Nc2nc3c(N4CCC(N5CCCCC5)CC4)ncnc3s2)cc1,23
4,Clc1ncnc2sc(Nc3ccccc3)nc12,4
5,CN1CCN(c2ncnc3sc(Nc4ccccc4)nc23)CC1,10
6,CCN1CCN(c2ncnc3sc(Nc4ccccc4)nc23)CC1,9
7,CCN(CC)c1ncnc2sc(Nc3ccccc3)nc12,9
8,CN(C)c1ncnc2sc(Nc3ccc(Cl)cc3)nc12,28
9,Clc1ccc(Nc2nc3c(N4CCOCC4)ncnc3s2)cc1,21
10,O=C(Nc1nc2c(Cl)ncnc2s1)c1ccccc1,15
11,c1ccc(Nc2nc3c(N4CCCCC4)ncnc3s2)cc1,17
12,COc1ccc(Nc2nc3c(Cl)ncnc3s2)cc1,0
13,CN1CCN(c2ncnc3sc(Nc4ccc(Cl)cc4)nc23)CC1,5
14,Clc1ccc(Nc2nc3c(N4CCCC4)ncnc3s2)cc1,37
15,CN(C)c1ncnc2sc(Nc3ccccc3)nc12,9
16,Clc1ccc(Nc2nc3c(N4CCCCC4)ncnc3s2)cc1,1

# Test system: T98G
# Experiment: Antiproliferative activity against human T98G cells assessed as growth inhibition at 10 uM after 48 hrs by SRB assay
# Type: functional
# Details: read-out: GI
row,SMILES,inhibition of growth at 10 µM [%]
1,Clc1ccc(Nc2nc3c(Cl)ncnc3s2)cc1,0
2,c1ccc(Nc2nc3c(N4CCNCC4)ncnc3s2)cc1,12
3,c1ccc(Nc2nc3c(N4CCC(N5CCCCC5)CC4)ncnc3s2)cc1,13
4,Clc1ncnc2sc(Nc3ccccc3)nc12,1
5,CN1CCN(c2ncnc3sc(Nc4ccccc4)nc23)CC1,36
6,CCN1CCN(c2ncnc3sc(Nc4ccccc4)nc23)CC1,19
7,CCN(CC)c1ncnc2sc(Nc3ccccc3)nc12,49
8,CN(C)c1ncnc2sc(Nc3ccc(Cl)cc3)nc12,23
9,Clc1ccc(Nc2nc3c(N4CCOCC4)ncnc3s2)cc1,22
10,O=C(Nc1nc2c(Cl)ncnc2s1)c1ccccc1,23
11,c1ccc(Nc2nc3c(N4CCCCC4)ncnc3s2)cc1,42
12,COc1ccc(Nc2nc3c(Cl)ncnc3s2)cc1,4
13,CN1CCN(c2ncnc3sc(Nc4ccc(Cl)cc4)nc23)CC1,20
14,Clc1ccc(Nc2nc3c(N4CCCC4)ncnc3s2)cc1,6
15,CN(C)c1ncnc2sc(Nc3ccccc3)nc12,45
16,Clc1ccc(Nc2nc3c(N4CCCCC4)ncnc3s2)cc1,45

# Test system: A-431
# Experiment: Antiproliferative activity against human A431 cells assessed as growth inhibition at 10 uM after 48 hrs by SRB assay
# Type: functional
# Details: A-431, 48 h, read-out: GI
row,SMILES,inhibition of growth at 10 µM [%]
1,Clc1ccc(Nc2nc3c(Cl)ncnc3s2)cc1,0
2,c1ccc(Nc2nc3c(N4CCNCC4)ncnc3s2)cc1,18
3,c1ccc(Nc2nc3c(N4CCC(N5CCCCC5)CC4)ncnc3s2)cc1,10
4,Clc1ncnc2sc(Nc3ccccc3)nc12,1
5,CN1CCN(c2ncnc3sc(Nc4ccccc4)nc23)CC1,19
6,CCN1CCN(c2ncnc3sc(Nc4ccccc4)nc23)CC1,0
7,CCN(CC)c1ncnc2sc(Nc3ccccc3)nc12,12
8,CN(C)c1ncnc2sc(Nc3ccc(Cl)cc3)nc12,0
9,Clc1ccc(Nc2nc3c(N4CCOCC4)ncnc3s2)cc1,0
10,O=C(Nc1nc2c(Cl)ncnc2s1)c1ccccc1,0
11,c1ccc(Nc2nc3c(N4CCCCC4)ncnc3s2)cc1,22
12,COc1ccc(Nc2nc3c(Cl)ncnc3s2)cc1,9
13,CN1CCN(c2ncnc3sc(Nc4ccc(Cl)cc4)nc23)CC1,21
14,Clc1ccc(Nc2nc3c(N4CCCC4)ncnc3s2)cc1,17
15,CN(C)c1ncnc2sc(Nc3ccccc3)nc12,10
16,Clc1ccc(Nc2nc3c(N4CCCCC4)ncnc3s2)cc1,22

# Test system: A549
# Experiment: Antiproliferative activity against human A549 cells assessed as growth inhibition at 10 uM after 48 hrs by SRB assay
# Type: functional
# Details: A549, 48 h, read-out: GI
row,SMILES,inhibition of growth at 10 µM [%]
1,Clc1ccc(Nc2nc3c(Cl)ncnc3s2)cc1,46
2,c1ccc(Nc2nc3c(N4CCNCC4)ncnc3s2)cc1,19
3,c1ccc(Nc2nc3c(N4CCC(N5CCCCC5)CC4)ncnc3s2)cc1,19
4,Clc1ncnc2sc(Nc3ccccc3)nc12,3
5,CN1CCN(c2ncnc3sc(Nc4ccccc4)nc23)CC1,19
6,CCN1CCN(c2ncnc3sc(Nc4ccccc4)nc23)CC1,25
7,CCN(CC)c1ncnc2sc(Nc3ccccc3)nc12,48
8,CN(C)c1ncnc2sc(Nc3ccc(Cl)cc3)nc12,23
9,Clc1ccc(Nc2nc3c(N4CCOCC4)ncnc3s2)cc1,24
10,O=C(Nc1nc2c(Cl)ncnc2s1)c1ccccc1,29
11,c1ccc(Nc2nc3c(N4CCCCC4)ncnc3s2)cc1,54
12,COc1ccc(Nc2nc3c(Cl)ncnc3s2)cc1,0
13,CN1CCN(c2ncnc3sc(Nc4ccc(Cl)cc4)nc23)CC1,18
14,Clc1ccc(Nc2nc3c(N4CCCC4)ncnc3s2)cc1,26
15,CN(C)c1ncnc2sc(Nc3ccccc3)nc12,28
16,Clc1ccc(Nc2nc3c(N4CCCCC4)ncnc3s2)cc1,57

# Test system: not listed separately
# Experiment: Antiproliferative activity against human NCI-H322 cells assessed as growth inhibition at 10 uM after 48 hrs by SRB assay
# Type: functional
# Details: NCI-H322, 48 h, read-out: GI
row,SMILES,inhibition of growth at 10 µM [%]
1,Clc1ccc(Nc2nc3c(Cl)ncnc3s2)cc1,47
2,c1ccc(Nc2nc3c(N4CCNCC4)ncnc3s2)cc1,35
3,c1ccc(Nc2nc3c(N4CCC(N5CCCCC5)CC4)ncnc3s2)cc1,30
4,Clc1ncnc2sc(Nc3ccccc3)nc12,0
5,CN1CCN(c2ncnc3sc(Nc4ccccc4)nc23)CC1,39
6,CCN1CCN(c2ncnc3sc(Nc4ccccc4)nc23)CC1,27
7,CCN(CC)c1ncnc2sc(Nc3ccccc3)nc12,39
8,CN(C)c1ncnc2sc(Nc3ccc(Cl)cc3)nc12,6
9,Clc1ccc(Nc2nc3c(N4CCOCC4)ncnc3s2)cc1,42
10,O=C(Nc1nc2c(Cl)ncnc2s1)c1ccccc1,37
11,c1ccc(Nc2nc3c(N4CCCCC4)ncnc3s2)cc1,41
12,COc1ccc(Nc2nc3c(Cl)ncnc3s2)cc1,25
13,CN1CCN(c2ncnc3sc(Nc4ccc(Cl)cc4)nc23)CC1,10
14,Clc1ccc(Nc2nc3c(N4CCCC4)ncnc3s2)cc1,27
15,CN(C)c1ncnc2sc(Nc3ccccc3)nc12,18
16,Clc1ccc(Nc2nc3c(N4CCCCC4)ncnc3s2)cc1,63
